From article PMC9858427, “Design, synthesis and biological evaluation of 2-((4-sulfamoylphenyl)amino)-pyrrolo[2,3-d]pyrimidine derivatives as CDK inhibitors” (Journal of Enzyme Inhibition and Medicinal Chemistry, 2023) come the findings set out here.

The structures appear in SMILES notation. Where two headings read alike, the source gives them in different places. A value given as a limit tells only on which side of the number the result lay.

For data set [1], the system named is MIA PaCa-2 cells. Briefly: MTT proliferation assay in MIA PaCa-2 cells. The class given is cell-based, human. The note with it: Homo sapiens, MIA PaCa-2, 72 h drug exposure. As for the experimental part:
(§1) The human pancreatic carcinoma MIA PaCa-2 was purchased from China Centre for Type Culture Collection, AsPC-1 and BxPC-3 cell Lines were purchased from Cell Centre of the Institute of Basic Medical Sciences, Chinese Academy of Medical Sciences and Peking Union Medical College. PANC-1 was kindly provided by Nankai Hospital (Tianjin, China). These cancer cell lines were cultured according to the manufacturer’s instruction.
(§2) Then 3-fold diluted concentrations of tested compound were added respectively which was dissolved by DMSO in the ratio of 1:1000. After indicated incubation period, MTT was added to each well and incubated for 4 h at 37 °C. Then, the supernatant was discarded gently, and the precipitate was dissolved in 100 µL of DMSO in each well. The absorbance (A) at 570 nm was detected with a microplate reader (Multiskan MK3; Thermo Fisher Scientific, MA, USA). Vehicle-treated cells were served as the control for the calculation of relative cell viability (%) of treated group at single concentration. IC50 value was calculated directly from the inhibition curve of serial dilution of test compound and was expressed as mean ± SD using the SPSS statistical software (SPSS17.0 Inc., Chicago, IL, USA).
(Tetrazolium dyes change colour on reduction, which living cells bring about.)

A further data set concerns AsPC-1. The data set can be described thus: MTT proliferation assay in AsPC-1 cells. The note with it: Homo sapiens, ASPC1; 72 h drug exposure. Format: cell-based. As to the method: as §1
as §2, with “Cells were planted in 96-well plates at a density of 3000–4000 cells per well and incubated at 37 °C in a humidified CO2 incubator for 24 h. Then 3-fold” for “Then 3-fold”

The test system of the next data set is BxPC-3. The data set can be described thus: MTT proliferation assay in BxPC-3 cells. The note with it: Homo sapiens, 72 h drug exposure. Format: cell-based. As for the experimental part:
as §1
as §2, with “Cells were planted in 96-well plates at a density of 3000–4000 cells per well and incubated at 37 °C in a humidified CO2 incubator for 24 h. Then 3-fold” for “Then 3-fold”

For the next data set, the system named is PANC-1. Briefly: MTT proliferation assay in PANC-1 cells. The class given is cell-based. The settings on record: Homo sapiens, 72 h drug exposure. As to the method: as §1
as §2, with “Cells were planted in 96-well plates at a density of 3000–4000 cells per well and incubated at 37 °C in a humidified CO2 incubator for 24 h. Then 3-fold” for “Then 3-fold”

The target of another data set is CDK9/cyclinT1 (Homo sapiens, UniProt P50750). Briefly: CDK9/cyclinT1 Lance Ultra Assay, single concentration screen. The class given is biochemical. The note with it: 50 nM, ATP concentration at Km, read-out: CDK9 inhibitory rate (%) @ 50nM. As for the experimental part:
(§3) CDK kinase activity (IC50 values and inhibitory rate at single concentration) was measured using the kinase profiling services (Shanghai ChemPartner Co., Ltd). Compounds were sent to ChemPartner as a solution in DMSO at concentration of 10 mM.

For another data set, the target named is CDK7 (Homo sapiens, UniProt P50613). The data set can be described thus: CDK7 kinase IC50, Mobility shift assay. The class given is biochemical. As to the method:
as §3

Data set [2] deals with MIA PaCa-2 cells. Briefly: Cell cycle analysis by PI staining and flow cytometry. The class given is cell-based, human. The note with it: 24 h treatment. As to the method: MIA PaCa-2 cells were incubated with test compound at given concentration for indicated time in 6 well plates. The cells were collected and washed with cold PBS for two times. For cell cycle analysis, cells were fixed with 1 ml of 70% ethanol at −20 °C overnight then re-suspended with 400 µL binding buffer at density of 10^6 cells/mL, with PI staining for 30 min at room temperature. DNA contents were analysed by a BD Accuri C6 flow cytometry (BD Biosciences, Mountain View, CA, USA). For cell apoptosis analysis, after centrifugation and removal of the supernatants, cells were resuspended in 500 µL of 1 ×binding buffer which was then added to 5 µL of annexin V-FITC and incubated at room temperature for 10 min. After adding 10 µL of PI the cells were incubated at room temperature for another 10 min, and their fluorescence intensity evaluated by a BD Accuri C6 (BD Biosciences, Mountain View, CA, USA).

The test system of data set [3] is MIA PaCa-2 cells. Briefly: Cell viability after CDK9 knockdown by siRNA. Format: cell-based, human. The settings on record: siCDK9 50 nM; compound 0.2 µM, 72 h. As to the method:
as §2, with “Cells were planted in 96-well plates at a density of 3000–4000 cells per well and incubated at 37 °C in a humidified CO2 incubator for 24 h. Then 3-fold” for “Then 3-fold”
Specific siRNAs against CDK9 (Catelog ID: SIGS0004694-1) were purchased from RiboBio (Guangdong, China) together with a scrambled siRNA. […] Approximately 48 h after transfection, the cells were analysed for protein expression by Western blot. […]

Data set [4] can be described thus: Drug concentration in tumour tissue and plasma of tumour-bearing mice. Format: in vivo, BALB/C nude mice. The note with it: for concentration at 1 h / concentration at 4 h: female, BALB/C nude, mouse, tumour-bearing mice (n = 3); for concentration at 1 h: 1.0 h after 30 mg/kg single oral dosing; for concentration at 4 h: 4.0 h after 30 mg/kg single oral dosing. As to the method: AsPC-1 (5 × 10^7) cells were injected subcutaneously into 5-week-old female BALB/C nude mice (Beijing Huafukang Bioscience CO. Inc, Beijing, China). After two weeks, mice were omogenizamised and treated with vehicle, gemcitabine (GCTB), or test compound. Blank solvent and test compound was administered by oral gavage (10 ml/kg) with once daily of five days and followed by 2 days off in each week, GCTB was given once a week by 50 mg/kg intraperitoneal injection. Mice were inspected daily for clinical signs, both tumour diameters and body weight were determined 3 times weekly. Tumour volumes were calculated according to the formula “tumor volume (V) = length × width^2/2”. Median TGI values were calculated as follows: TGI = 100 × [1-(Vtreated group at day20-Vtreated group at day1)/(Vvehicle group at day20-Vvehicle group at day1)]. Data were plotted as average with SD in the graphical representation of tumour growth. The p values obtained from the two-way ANOVA analysis. Meanwhile, main organs of mice were collected, formalin-fixed and paraffin-embedded for pathological analysis by H&E dyeing. For drug concentration determination, blood and tumour tissues were collected at indicated time after single administration. Standard curve of test compound was established in the acquisition mode of SIM using a SHIMADZU LC-MS instrument. Blood kept in anticoagulant tube coated with heparin sodium was centrifuged to provide the supernatant, which was followed by added with 3-fold acetonitrile to precipitate plasma protein. After centrifugation at 10 × 10^3 for 5 min, the supernatant was injected directedly into LC-MS instrument for quantification of drug concentration. As for tumour tissues, omogenizationation (Precellys Evolution) was done after weighed accurately and added with 3-fold saline. After centrifugation under same condition as plasma samples, supernatant was separated and injected into LC-MS for quantification.

Data set [5] in a line: Solubility / precipitation observations. Format: physicochemical.
Setting [6] is: plasma, read-out: Drug concentration (µM) Plasma.
Setting [7] is: read-out: Drug concentration (µM) Tumour.

Chain of CDK7 (P50613 whole entry): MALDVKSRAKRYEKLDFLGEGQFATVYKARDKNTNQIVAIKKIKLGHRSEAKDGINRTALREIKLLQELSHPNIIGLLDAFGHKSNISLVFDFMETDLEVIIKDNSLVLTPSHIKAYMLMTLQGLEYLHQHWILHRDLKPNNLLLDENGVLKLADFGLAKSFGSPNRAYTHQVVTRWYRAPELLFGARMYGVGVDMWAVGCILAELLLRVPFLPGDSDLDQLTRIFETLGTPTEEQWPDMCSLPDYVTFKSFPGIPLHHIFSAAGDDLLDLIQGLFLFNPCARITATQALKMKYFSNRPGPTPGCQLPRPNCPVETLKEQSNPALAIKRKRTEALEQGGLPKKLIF
Chain of CDK7 (P51946 whole entry partner): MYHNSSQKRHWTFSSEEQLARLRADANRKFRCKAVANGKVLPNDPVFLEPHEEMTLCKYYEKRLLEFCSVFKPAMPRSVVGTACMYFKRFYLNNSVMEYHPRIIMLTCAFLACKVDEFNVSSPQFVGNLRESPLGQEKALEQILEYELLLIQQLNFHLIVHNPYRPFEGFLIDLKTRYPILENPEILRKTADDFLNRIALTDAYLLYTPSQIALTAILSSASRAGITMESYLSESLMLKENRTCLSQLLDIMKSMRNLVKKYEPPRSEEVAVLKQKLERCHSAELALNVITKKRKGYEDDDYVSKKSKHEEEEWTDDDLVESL
Chain of CDK7 (P51948 whole entry partner): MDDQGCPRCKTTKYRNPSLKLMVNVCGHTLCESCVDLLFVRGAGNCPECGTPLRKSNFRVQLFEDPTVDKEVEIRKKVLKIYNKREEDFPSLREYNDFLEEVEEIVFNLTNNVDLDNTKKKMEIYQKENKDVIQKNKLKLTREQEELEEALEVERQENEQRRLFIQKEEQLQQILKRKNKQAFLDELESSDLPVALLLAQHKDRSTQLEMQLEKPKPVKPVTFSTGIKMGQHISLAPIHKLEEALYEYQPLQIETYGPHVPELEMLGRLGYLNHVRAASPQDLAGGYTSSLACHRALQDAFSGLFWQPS
Chain of CDK9/cyclinT1 (P50750 whole entry): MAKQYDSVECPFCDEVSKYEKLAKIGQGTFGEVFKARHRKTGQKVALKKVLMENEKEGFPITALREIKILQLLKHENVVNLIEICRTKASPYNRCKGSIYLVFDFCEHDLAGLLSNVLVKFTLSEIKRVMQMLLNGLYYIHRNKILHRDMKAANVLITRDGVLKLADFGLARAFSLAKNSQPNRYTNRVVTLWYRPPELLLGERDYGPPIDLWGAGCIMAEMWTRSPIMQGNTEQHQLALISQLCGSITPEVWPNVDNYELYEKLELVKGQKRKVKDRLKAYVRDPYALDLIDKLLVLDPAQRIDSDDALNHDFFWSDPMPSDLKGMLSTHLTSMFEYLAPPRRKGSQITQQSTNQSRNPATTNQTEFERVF
Chain of CDK9/cyclinT1 (O60563 whole entry partner): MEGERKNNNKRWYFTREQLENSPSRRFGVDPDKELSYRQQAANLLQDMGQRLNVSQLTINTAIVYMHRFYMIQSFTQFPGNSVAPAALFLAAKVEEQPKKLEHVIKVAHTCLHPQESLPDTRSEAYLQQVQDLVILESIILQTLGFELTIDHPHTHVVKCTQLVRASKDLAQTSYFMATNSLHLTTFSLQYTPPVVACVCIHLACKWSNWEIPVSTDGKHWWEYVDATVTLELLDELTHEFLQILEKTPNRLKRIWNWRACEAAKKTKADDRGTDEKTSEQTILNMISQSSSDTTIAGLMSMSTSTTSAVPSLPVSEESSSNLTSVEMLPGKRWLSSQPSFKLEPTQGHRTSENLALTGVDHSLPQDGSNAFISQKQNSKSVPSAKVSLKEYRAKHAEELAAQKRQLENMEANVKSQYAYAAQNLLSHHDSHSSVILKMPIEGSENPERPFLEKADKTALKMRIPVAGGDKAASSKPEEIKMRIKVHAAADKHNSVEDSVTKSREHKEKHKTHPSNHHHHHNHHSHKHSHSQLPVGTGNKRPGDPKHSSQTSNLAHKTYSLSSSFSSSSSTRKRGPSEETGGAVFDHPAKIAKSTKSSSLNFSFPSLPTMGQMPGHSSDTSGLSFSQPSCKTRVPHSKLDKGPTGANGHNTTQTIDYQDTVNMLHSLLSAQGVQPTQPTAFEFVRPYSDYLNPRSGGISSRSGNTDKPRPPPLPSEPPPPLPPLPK

Usually IC50 stands for the concentration needed to halve the response being measured. Turning to `CN(C)C(=O)c1cc2cnc(Nc3ccc(S(N)(=O)=O)cc3)nc2n1C1CCCC1` [compound 2g, 7-Cyclopentyl-N,N-dimethyl-2-((4-sulfamoylphenyl)amino)-7H-pyrrolo[2,3-d]pyrimidine-6-carboxamide], the IC50 with MIA PaCa-2 cells [1] was 0.52 ± 0.67 µM; in the data set on AsPC-1, 1.4 ± 0.034 µM; in the data set on BxPC-3, 0.226 ± 0.065 µM; in the data set on PANC-1, 11 ± 4.97 µM; on CDK7 it was above 10000 nM. Besides, the inhibition at 0.05 µM on CDK9/cyclinT1 was 97.8%. Also, the “effect on cell cycle” value was “cell cycle arrest at G1 phase” with MIA PaCa-2 cells [2] (0.1 µM); “modest G2/M-arrested effect” in the data set with MIA PaCa-2 cells [2] (0.3 and 1.0 µM). Moreover, the “sensitivity of MIA PaCa-2 cells to compound after downregulation of CDK9 by siRNA” value in the data set on MIA PaCa-2 cells [3] is given as “significantly decreased”. Also, in [4] (30 mg/kg single oral dosing, both plasma and tumour tissue), the “drug concentration in plasma and tumour tissue relative to cellular IC50 value” was “higher than 2 fold”. The concentration at 1 h in data set [4] (setting [6]) came out at 7.46 ± 1.95 µM; in data set [4] (setting [7]), 3.13 ± 0.64 µM. For the same compound, the figures for the concentration at 4 h in [4] (setting [6]) and in [4] (setting [7]) were 0.53 ± 0.41 µM and 0.48 ± 0.34 µM, respectively. Further, in [5], the “solubility (in words)” value is “much poorer than 5b”.
